Test results as given in article PMC7044277 (Nature Communications, 2020).
Where “and” joins values, the source holds several entries; their conditions need not be identical. Identical values can stand only once.

Assays:
DRD3 F1063.28A [1] = molecular target: T1, DRD3 F1063.28A (Homo sapiens, UniProt P35462, F106A); assay: biochemical; type: binding
[2] = molecular target: T2, DRD4 (D4.4 variant) wild-type (Homo sapiens, UniProt P21917); assay: Radioligand competition binding, [3H]-N-methylspiperone; conditions: DRD4; [3H]-methylspiperone (0.8-1.0 nM); read-out: Ki
T2 sequence (P21917 1-419): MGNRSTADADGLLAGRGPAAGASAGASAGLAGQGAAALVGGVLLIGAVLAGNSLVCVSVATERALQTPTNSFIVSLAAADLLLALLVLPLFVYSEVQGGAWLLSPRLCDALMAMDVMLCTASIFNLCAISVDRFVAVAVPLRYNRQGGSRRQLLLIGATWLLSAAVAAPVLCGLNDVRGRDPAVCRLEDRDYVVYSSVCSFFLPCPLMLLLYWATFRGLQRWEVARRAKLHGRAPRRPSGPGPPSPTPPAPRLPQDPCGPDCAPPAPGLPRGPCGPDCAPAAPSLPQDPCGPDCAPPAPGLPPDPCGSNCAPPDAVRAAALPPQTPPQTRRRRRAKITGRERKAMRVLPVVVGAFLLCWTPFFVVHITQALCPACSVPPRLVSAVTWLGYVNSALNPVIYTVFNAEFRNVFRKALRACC

DRD2 F1103.28L [3] = molecular target: T3, DRD2 F1103.28L (Homo sapiens, UniProt P14416, F110L); assay: β-arrestin2 recruitment (Tango), mutant; type: cell-based
T3 construct: expressed in transfected cells; host or cells: HEK293T (ATCC CRL-11268)
T3 sequence (P14416 whole entry F110L): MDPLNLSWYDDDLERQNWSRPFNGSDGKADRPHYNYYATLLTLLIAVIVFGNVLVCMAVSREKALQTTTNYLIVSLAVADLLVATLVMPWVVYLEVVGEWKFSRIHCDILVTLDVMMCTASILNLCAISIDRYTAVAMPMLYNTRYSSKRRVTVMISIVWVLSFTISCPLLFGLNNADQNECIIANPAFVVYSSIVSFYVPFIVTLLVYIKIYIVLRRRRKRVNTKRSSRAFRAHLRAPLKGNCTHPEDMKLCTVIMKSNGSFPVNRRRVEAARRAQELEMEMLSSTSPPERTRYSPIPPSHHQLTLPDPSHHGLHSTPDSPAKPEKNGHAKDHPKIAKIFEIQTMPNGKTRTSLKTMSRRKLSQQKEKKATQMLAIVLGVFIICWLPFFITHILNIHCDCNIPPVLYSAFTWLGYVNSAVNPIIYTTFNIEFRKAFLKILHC

DRD3 F1063.28A [4] = molecular target: T1, DRD3 F1063.28A; assay: cell-based; type: cell-based
DRD3 = DRD3 (Homo sapiens, UniProt P35462); assay: β-arrestin2 recruitment (Tango); type: cell-based; conditions: DRD3, Tango
DRD3, sequence (P35462 whole entry): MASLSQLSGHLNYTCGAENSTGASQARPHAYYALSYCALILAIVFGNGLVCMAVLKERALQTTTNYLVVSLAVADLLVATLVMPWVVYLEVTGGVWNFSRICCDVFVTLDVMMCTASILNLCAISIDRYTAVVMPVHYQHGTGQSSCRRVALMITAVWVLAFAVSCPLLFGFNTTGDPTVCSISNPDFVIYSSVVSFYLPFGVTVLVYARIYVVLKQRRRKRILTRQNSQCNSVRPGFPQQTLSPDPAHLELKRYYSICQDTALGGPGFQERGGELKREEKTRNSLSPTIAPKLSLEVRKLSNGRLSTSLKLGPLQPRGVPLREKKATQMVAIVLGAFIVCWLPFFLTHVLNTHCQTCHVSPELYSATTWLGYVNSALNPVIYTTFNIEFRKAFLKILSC

DRD2 F1103.28A [5] = molecular target: T4, DRD2 F1103.28A (Homo sapiens, UniProt P14416, F110A); assay: Gαi/o-mediated cAMP inhibition (GloSensor), mutant; type: cell-based; parameters: expressed in transfected cells; host or cells: HEK293T (ATCC CRL-11268)
T4 sequence (P14416 whole entry F110A): as the sequence (P14416 whole entry F110L) above, with L110A counted along it

DRD3 wild-type = DRD3 wild-type (Homo sapiens, UniProt P35462); assay: Radioligand competition binding, [3H]-N-methylspiperone; conditions: DRD3; [3H]-methylspiperone (0.8-1.0 nM); read-out: Ki
DRD3 wild-type, sequence (P35462 whole entry): as the sequence (P35462 whole entry) above

DRD2 F1103.28A [6] = molecular target: T4, DRD2 F1103.28A; assay: β-arrestin2 recruitment (Tango), mutant; type: cell-based; parameters: expressed in transfected cells; host or cells: HEK293T (ATCC CRL-11268)
[7] = molecular target: DRD2 (D2 long receptor) wild-type (Homo sapiens, UniProt P14416); assay: Radioligand competition binding, [3H]-N-methylspiperone, HEK293T membranes; conditions: DRD2; [3H]-methylspiperone (0.8-1.0 nM); read-out: Ki
DRD2 (D2 long receptor) wild-type, sequence (P14416 whole entry): as the sequence (P14416 whole entry F110L) above, with L110F counted along it

DRD4 (D4.4 variant) [8] = molecular target: T5, DRD4 (D4.4 variant) (Homo sapiens, UniProt P21917); assay: Gαi/o-mediated cAMP inhibition (GloSensor); type: cell-based; conditions: DRD4; agonist, cAMP inhibition; read-out: EC50 ± SEM
T5 sequence (P21917 1-419): T2 sequence (P21917 1-419)

DRD2 (D2 long receptor) [9] = molecular target: T6, DRD2 (D2 long receptor) (Homo sapiens, UniProt P14416); assay: β-arrestin2 recruitment (Tango), HTLA cells; type: cell-based; conditions: for response, Fig_S11e dose-response source data: replicate values
T6 sequence (P14416 whole entry): as the sequence (P14416 whole entry F110L) above, with L110F counted along it

DRD2 F1103.28L [10] = molecular target: T3, DRD2 F1103.28L; assay: Gαi/o-mediated cAMP inhibition (GloSensor), mutant; type: cell-based
DRD2 (D2 long receptor) [11] = molecular target: T6, DRD2 (D2 long receptor); assay: Gαi/o-mediated cAMP inhibition (GloSensor split-luciferase cAMP reporter), HEK293T; type: cell-based; conditions: for response, Fig_S11d dose-response source data: replicate values;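 on all read-outs here: compounds applied 15 min at room temperature, then luciferin plus 400 nM isoproterenol to raise cAMP through endogenous β2-adrenergic receptors, luminescence read 15 min later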
DRD2 F1103.28A [12] = molecular target: T4, DRD2 F1103.28A; type: binding; parameters: expressed in transfected cells; host or cells: HEK293T (ATCC CRL-11268)
DRD4 (D4.4 variant) [13] = molecular target: T5, DRD4 (D4.4 variant); assay: β-arrestin2 recruitment (Tango); type: cell-based; conditions: DRD4; Tango; read-out: EC50 ± SEM
[14] = read-out: Emax relative to quinpirole response

T1 sequence (P35462 whole entry F106A): as the sequence (P35462 whole entry) above, with F106A counted along it

## CCOc1cccc2cc(C(C)NCC3(O)CCCCCC3)oc12 (stereo not shown) [O4LE7]
DRD3 F1063.28A [1]
  Ki: 417 nM
DRD3 F1063.28A [1]; DRD3 Phe106^3.28Ala vs wild-type DRD3
  affinity decreased, mutant vs wild type: 1.75 fold
[2]
  Ki: 4.07 µM
DRD2 F1103.28L [3]
  EC50: 504 nM
DRD2 F1103.28L [3]; [14]
  Emax: 25.8%
DRD3 F1063.28A [4]
  EC50: > 10 µM
DRD3; read-out: EC50 ± SEM
  EC50: 803 ± 265 nM
DRD3; [14]
  Emax: 32.3%
DRD2 F1103.28A [5]
  EC50: > 10 µM
DRD3 wild-type
  Ki: 240 nM
DRD2 F1103.28A [6]
  EC50: > 10 µM
[7]
  Ki: 1580 nM
DRD4 (D4.4 variant) [8]
  EC50: > 10 µM
DRD2 (D2 long receptor) [9]; DRD2, β-arrestin2 recruitment (Tango), read-out: EC50 ± SEM
  EC50: 44.6 ± 4.71 nM
DRD2 (D2 long receptor) [9]; Log[Drug] -6.52
  response, Fig_S11e dose-response source data: 70.7144
DRD2 (D2 long receptor) [9]; Log[Drug] -7
  response, Fig_S11e dose-response source data: 60.0625 and 58.8888 and 58.966 and 44.6969 and 52.556 and 54.4002 and 47.2717 and 45.6897 and 52.8235
DRD2 (D2 long receptor) [9]; Log[Drug] -7.52
  response, Fig_S11e dose-response source data: 37.663 and 37.8279 and 34.2682 and 29.2235 and 29.8377 and 33.7069 and 31.0328 and 28.5097 and 31.1567
DRD2 (D2 long receptor) [9]; Log[Drug] -8
  response, Fig_S11e dose-response source data: 19.0993 and 25.2494 and 16.3411 and 14.3144 and 11.2312 and 12.8766 and 17.2566 and 18.2263 and 16.5156
DRD2 (D2 long receptor) [9]; Log[Drug] -8.52
  response, Fig_S11e dose-response source data: 6.955 and 10.6803 and 8.41 and 5.811 and 4.949 and 5.989 and 8.148 and 9.142 and 8.777
DRD2 (D2 long receptor) [9]; Log[Drug] -9
  response, Fig_S11e dose-response source data: 5.592 and 4.443 and 5.4634 and 4.207 and 4.266 and 4.232 and 6.141 and 5.2483 and 8.786
DRD2 (D2 long receptor) [9]; Log[Drug] -9.52
  response, Fig_S11e dose-response source data: 4.527 and 4.325 and 4.4009 and 4.395 and 4.556 and 4.701 and 4.762 and 4.575 and 4.648
DRD2 (D2 long receptor) [9]; Log[Drug] -10
  response, Fig_S11e dose-response source data: 3.636 and 4.222 and 3.934 and 4.061 and 4.088 and 4.136 and 4.898 and 3.74 and 4.41
DRD2 (D2 long receptor) [9]; Log[Drug] -10.52
  response, Fig_S11e dose-response source data: 4.52 and 6.171 and 4.768 and 3.986 and 4.148 and 4.0514 and 3.608 and 3.803 and 4.57
DRD2 (D2 long receptor) [9]; Log[Drug] -11
  response, Fig_S11e dose-response source data: 5.604 and 3.965 and 4.161 and 3.823 and 4.063 and 4.032 and 3.814 and 4.075 and 4.582
DRD2 (D2 long receptor) [9]; Log[Drug] -11.52
  response, Fig_S11e dose-response source data: 3.3514 and 3.514 and 3.342 and 3.863 and 4.025 and 4.187 and 4.1 and 3.746 and 4.367
DRD2 (D2 long receptor) [9]; Log[Drug] -12
  response, Fig_S11e dose-response source data: 4.706 and 3.881 and 4.189 and 3.844 (2×) and 3.873 and 3.954 and 3.594 and 3.602
DRD2 (D2 long receptor) [9]; HTLA, read-out: Emax relative to quinpirole response, DRD2, Tango
  Emax: 71.8%
DRD2 F1103.28L [10]; DRD2 F1103.28L (b138 head prints DRD2 F1063.28L)
  EC50: 3.61 ± 0.07 nM
DRD2 F1103.28L [10]; read-out: Emax relative to quinpirole response, DRD2 F1103.28L
  Emax: 72.6%
DRD2 (D2 long receptor) [11]; DRD2, agonist, Gαi/o-mediated cAMP inhibition, read-out: EC50 ± SEM
  EC50: 1.65 ± 1.05 nM
DRD2 (D2 long receptor) [11]; Log[Drug] -6.52
  response, Fig_S11d dose-response source data: 96.8634
DRD2 (D2 long receptor) [11]; Log[Drug] -7
  response, Fig_S11d dose-response source data: 95.598 and 91.4295 and 85.3505 and 88.3932 and 84.5729 and 79.5858 and 85.933 and 88.7083 and 90.2631
DRD2 (D2 long receptor) [11]; Log[Drug] -7.52
  response, Fig_S11d dose-response source data: 86.7896 and 85.152 and 83.291 and 74.147 and 71.7381 and 81.1478 and 90.9653 and 82.4555 and 87.421
DRD2 (D2 long receptor) [11]; Log[Drug] -8
  response, Fig_S11d dose-response source data: 74.0608 and 77.7579 and 74.8548 and 59.6561 and 53.4646 and 60.8794 and 74.9823 and 74.9154 and 83.8097
DRD2 (D2 long receptor) [11]; Log[Drug] -8.52
  response, Fig_S11d dose-response source data: 64.5825 and 59.1734 and 57.1139 and 43.5468 and 40.7239 and 43.8667 and 54.9367 and 67.0577 and 71.5884
DRD2 (D2 long receptor) [11]; Log[Drug] -9
  response, Fig_S11d dose-response source data: 50.9108 and 57.9824 and 64.8058 and 28.6043 and 24.1441 and 25.7626 and 68.5958 and 61.4569 and 59.9355
DRD2 (D2 long receptor) [11]; Log[Drug] -9.52
  response, Fig_S11d dose-response source data: 29.7954 and 31.0609 and 40.6137 and 14.7533 and 4.309 and 6.285 and 34.6235 and 38.6026 and 45.7749
DRD2 (D2 long receptor) [11]; Log[Drug] -10
  response, Fig_S11d dose-response source data: 30.912 and 22.4013 and 39.5964 and 4.779 and -4.2354 and 0.1871 and 39.589 and 34.2056 and 43.2671
DRD2 (D2 long receptor) [11]; Log[Drug] -10.52
  response, Fig_S11d dose-response source data: 36.5196 and 13.1215 and 30.515 and 10.8765 and -4.6118 and 7.301 and 39.8732 and 28.9894 and 33.9548
DRD2 (D2 long receptor) [11]; Log[Drug] -11
  response, Fig_S11d dose-response source data: 25.0067 and 7.067 and 19.399 and -4.2354 and -19.0273 and 3.763 and 32.3665 and 18.8244 and 27.4345
DRD2 (D2 long receptor) [11]; Log[Drug] -11.52
  response, Fig_S11d dose-response source data: 11.5335 and 13.2455 and 15.2305 and 7.489 and 4.214 and 9.484 and 32.4836 and 21.3489 and 42.8324
DRD2 (D2 long receptor) [11]; Log[Drug] -12
  response, Fig_S11d dose-response source data: 5.306 and -4.8923 and -12.733 and -1.883 and -0.2081 and -16.5056 and -3.2274 and 22.4524 and -2.0571
DRD2 (D2 long receptor) [11]; HEK-293T, read-out: Emax relative to quinpirole response, DRD2, cAMP inhibition
  Emax: 95.2%
DRD2 F1103.28A [12]; DRD2 F1103.28A, read-out: pKi ± SEM (converted)
  Ki: 214 nM
DRD2 F1103.28A [12]; DRD2 Phe110^3.28Ala vs wild-type DRD2
  affinity increase (binding enhanced), mutant vs wild type: 7.52 fold
DRD4 (D4.4 variant) [13]
  EC50: > 10 µM
